Assay results from paper PMC7098370 (Toxicological Sciences, 2020).
Marks after values point to notes of the source that are not given here.

What was measured:
[1] = tested on: rats; assay: Acute oral toxicity testing; type: in vivo, rat
[2] = Plasma toxicokinetic study; type: in vivo, rat; conditions: for C max / K el / t 1/2: 300 mg test item/kg PO
[3] = Mass balance study: urinary and fecal Co excretion after single oral gavage; type: in vivo, rat; conditions: single oral bolus 300 mg/kg bw (220 mg Co/kg bw), 72 h
[4] = tested on: Crl:CD(SD) rats; assay: Subchronic 90-day oral RDT study with reproductive toxicity screening; type: in vivo, rat
[5] = tested on: Crl:CD(SD) rats; assay: Combined RDT study with reproduction/developmental toxicity screening test; type: in vivo, rat; conditions: for mean body weight of pups below the control: high dose
[6] = tested on: Crl:CD(SD) rats; assay: Benchmark dose modeling; design: species or system rat; conditions: nonconstant variance
[7] = Bioelution in simulated gastric fluid; conditions: simulated gastric fluid pH 1.5, 2 h, 37°C
[8] = Bioelution in simulated intestinal fluid; conditions: simulated intestinal fluid pH 7.4, 24 h
[9] = females, 73.4 mg Co/kg bw/day, end of 90-day oral exposure, experimental group
[10] = females, 220 mg Co/kg bw/day, end of 90-day oral exposure, experimental group
[11] = females, 734 mg Co/kg bw/day, end of 90-day oral exposure, experimental group
[12] = females, 734 mg Co/kg bw/day, recovery group, end of 28-day recovery period
[13] = females, 734 mg Co/kg bw/day, recovery group, end of 90-day oral exposure
[14] = males, 73.4 mg Co/kg bw/day, end of 90-day oral exposure, experimental group
[15] = males, 220 mg Co/kg bw/day, end of 90-day oral exposure, experimental group
[16] = males, 734 mg Co/kg bw/day, end of 90-day oral exposure, experimental group
[17] = males, 734 mg Co/kg bw/day, recovery group, end of 28-day recovery period
[18] = males, 734 mg Co/kg bw/day, recovery group, end of 90-day oral exposure
[19] = female HGB dataset, Exponential 5 model
[20] = male PLT dataset, Exponential 2 model

[O]=[Co].[O]=[Co][O][Co]=[O] [Co3O4, Tricobalt tetraoxide]
Acute LD50 (mg Co/kg bw) ([1]; OECD 401 or 425): > 8076 mg Co/kg bw | Acute LD50 (mg substance/kg bw) ([1]; OECD 401 or 425): exceeding 11 000 mg substance/kg bw | Acute LD50 (mg substance/kg bw) ([1]; OECD 401 or 425, listed as Tricobalt Tetraoxide): > 11 000 mg substance/kg bw | C max ([2]; females): 1.10 ng/mL | K el ([2]; females): 0.0430 h⁻¹ | t 1/2 ([2]; females): 16.1 h | C max ([2]; males): 2.08 ng/mL | K el ([2]; males): 0.0402 h⁻¹ | t 1/2 ([2]; males): 17.3 h | oral bioavailability ([2]; single oral bolus, rats, males and females not distinguished): below 0.1% | Fecal Excretion (%) ([3]; females): 95.2 % of Co applied | Sum of Urinary and Fecal Excretion (%) ([3]; females): 95.3 % of Co applied | Urinary Excretion (%) ([3]; females): 0.12 % of Co applied | Fecal Excretion (%) ([3]; males): 116.4 % of Co applied | Sum of Urinary and Fecal Excretion (%) ([3]; males): 116.5 % of Co applied | Urinary Excretion (%) ([3]; males): 0.13 % of Co applied | premature deaths ([4]; 90-day oral gavage, all doses): None of the animals died prematurely | LOAEL (systemic) ([4]; 90-day oral gavage, rats): 734 mg Co/kg bw/day | NOAEL ([4]; 90-day oral gavage, rats): 220 mg Co/kg bw/day | NOAEL (reproductive) ([4]; 90-day oral gavage, rats): > 734 mg Co/kg bw/day | HCT, %Diff vs control [4, 9]: −0.6% | HCT, mean [4, 9]: 44.76% | HGB, %Diff vs control [4, 9]: +0.2% | HGB, mean [4, 9]: 9.51 mmol/L | RBC, mean [4, 9]: 8.17 ×10E6/µl | HCT, %Diff vs control [4, 10]: +4.4% | HCT, mean [4, 10]: 46.99% | HGB, %Diff vs control [4, 10]: +5.9% | HGB, mean [4, 10]: 10.09 mmol/L | RBC, %Diff vs control [4, 10]: +5.6% | RBC, mean [4, 10]: 8.74 ×10E6/µl | HCT, %Diff vs control [4, 11]: +13.9% | HCT, mean [4, 11]: 51.27% | HGB, %Diff vs control [4, 11]: +16.4% | HGB, mean [4, 11]: 11.09 mmol/L | RBC, %Diff vs control [4, 11]: +12.9% | RBC, mean [4, 11]: 9.35 ×10E6/µl | HCT, mean [4, 12]: • 40.76 • .530% | HGB, mean [4, 12]: • 9.28 • .450 mmol/l | RBC, mean [4, 12]: • 7.56 • .573 ×10E6/µl | HCT, mean [4, 13]: • 50.76 ^* • .013% | HGB, mean [4, 13]: • 10.86 ^* • .032 mmol/l | RBC, mean [4, 13]: • 9.12 • .17 ×10E6/µl | HCT, %Diff vs control [4, 14]: +2.6% | HCT, mean [4, 14]: 49.53% | HGB, %Diff vs control [4, 14]: +2.2% | HGB, mean [4, 14]: 10.29 mmol/L | PLT, %Diff vs control [4, 14]: +4.2% | PLT, mean [4, 14]: 896.5 ×10E3/µl | RBC, %Diff vs control [4, 14]: +1.1% | RBC, mean [4, 14]: 9.30 ×10E6/µl | HCT, %Diff vs control [4, 15]: +9.2% | HCT, mean [4, 15]: 52.73% | HGB, %Diff vs control [4, 15]: +9.5% | HGB, mean [4, 15]: 11.03 mmol/L | PLT, mean [4, 15]: 796.1 ×10E3/µl | RBC, %Diff vs control [4, 15]: +9.6% | RBC, mean [4, 15]: 10.08 ×10E6/µl | HCT, %Diff vs control [4, 16]: +24.2% | HCT, mean [4, 16]: 59.97% | HGB, %Diff vs control [4, 16]: +25.4% | HGB, mean [4, 16]: 12.63 mmol/L | PLT, mean [4, 16]: 573.9 ×10E3/µl | RBC, %Diff vs control [4, 16]: +22.7% | RBC, mean [4, 16]: 11.29 ×10E6/µl | HCT, mean [4, 17]: • 50.38 • .126% | HGB, mean [4, 17]: • 10.82 • .075 mmol/l | PLT, mean [4, 17]: • 882.4 • .285 ×10E3/µl | RBC, mean [4, 17]: • 9.47 • .052 ×10E6/µl | HCT, mean [4, 18]: • 60.96** • 9.1E−06% | HGB, mean [4, 18]: • 12.78** • 2.4E−06 mmol/l | PLT, mean [4, 18]: • 645.6** • .0085 ×10E3/µl | RBC, mean [4, 18]: • 11.3** • 7.1E−05 ×10E6/µl | food intake of dams reduced compared with the control ([5]; 220 mg Co/kg bw/day, lactation day 1): 30% | mean body weight of pups below the control ([5]; lactation day 0/1): up to 18% | mean body weight of pups below the control ([5]; lactation day 4): up to 21% | premature deaths ([5]; oral gavage, all doses): None of the animals died prematurely | NOAEL (F0 generation) ([5]; oral gavage, rats): 734 mg Co/kg bw/day | NOAEL (F1 generation) ([5]; oral gavage, rats): 220 mg Co/kg bw/day | NOAEL (reproductive toxicity) ([5]; oral gavage, rats): > 734 mg test item/kg bw/day | BMD1STD [6, 19]: 210 mg Co/kg bw/day | BMDL1STD [6, 19]: 115 mg Co/kg bw/day | BMD1STD [6, 20]: 317 mg Co/kg bw/day | BMDL1STD [6, 20]: 219 mg Co/kg bw/day | Bioelution of Co in gastric fluid (% release), 2 h [7]: 0.2 % release | Bioelution of Co in gastric fluid / cobalt release (µg Co/g sample), 2 h [7]: 1460 µg Co/g sample | Bioelution of Co in intestinal fluid (% release) [8]: 0.05 (24 h) % release | Bioelution of Co in intestinal fluid / cobalt release (µg Co/g sample) [8]: 385 (24 h) µg Co/g sample
